Measured values taken from patent publication US20070190523A1 (priority 2002, published 2007).
Like-named read-outs stand apart in the source and are kept apart here.

Experiments:
[1] = test system: mutant HIV-1 with I84V/L90M mutations; type: cell-based
[2] = test system: wild-type HIV-1 strain IIIB; experiment: microbe, parasite or virus in culture; type: cell-based
[3] = test system: recombinant HIV-1 strains with resistance mutations in the protease gene; experiment: Cross-Resistance Profile Assay, whole panel; type: cell-based
[4] = test system: recombinant HIV-1 46I/84A; experiment: Cross-Resistance Profile Assay; type: cell-based
[5] = test system: recombinant HIV-1 46I/47V/50V; experiment: Cross-Resistance Profile Assay; type: cell-based
[6] = test system: recombinant HIV-1 48V/54V/71V/82S; experiment: Cross-Resistance Profile Assay; type: cell-based
[7] = test system: recombinant HIV-1 10I/48V/71V/82A/90M; experiment: Cross-Resistance Profile Assay; type: cell-based
[8] = test system: recombinant HIV-1 54V/71V/82S; experiment: Cross-Resistance Profile Assay; type: cell-based
[9] = test system: recombinant HIV-1 10I/48V/54V/82A; experiment: Cross-Resistance Profile Assay; type: cell-based
[10] = test system: recombinant HIV-1 10R/46I/82T/84V; experiment: Cross-Resistance Profile Assay; type: cell-based
[11] = test system: recombinant HIV-1 30N/50S/82I/88D; experiment: Cross-Resistance Profile Assay; type: cell-based
[12] = test system: recombinant HIV-1 10F/46I/71V/82T/90M; experiment: Cross-Resistance Profile Assay; type: cell-based
WT [13] = molecular target: T1, WT (Human immunodeficiency virus type 1 group M subtype B, UniProt P04585); experiment: cell-based; parameters: species or system HIV
48V54V82A = experiment: microbe, parasite or virus in culture; type: cell-based, HIV
30N82I88D = experiment: microbe, parasite or virus in culture; type: cell-based, HIV
46I50V = experiment: microbe, parasite or virus in culture; type: cell-based, HIV
84V90M [14] = molecular target: T2, 84V90M (Human immunodeficiency virus type 1 group M subtype B, UniProt P04585, I572V/L578M); experiment: biochemical; type: biochemical, HIV
84V90M [15] = molecular target: T2, 84V90M; experiment: cell-based; parameters: species or system HIV
84V90M [16] = molecular target: T2, 84V90M; experiment: Cell-based assay (MT-4) EC50, 84V90M; parameters: species or system HIV-1
[17] = test system: recombinant HIV-1 10I/84V/71V/73S/90M; experiment: Cross-Resistance Profile Assay; type: cell-based
[18] = molecular target: recombinant HIV-1 protease (Human immunodeficiency virus type 1 group M subtype B, UniProt P04585); experiment: biochemical; type: biochemical
48V82A90M = experiment: microbe, parasite or virus in culture; parameters: species or system HIV; settings: Human immunodeficiency virus 1, read-out: Cell-based assay (MT-4) EC50/nM 48V82A90M
48V54V82S = experiment: microbe, parasite or virus in culture; parameters: species or system HIV; settings: Human immunodeficiency virus 1, read-out: Cell-based assay (MT-4) EC50/nM 48V54V82S
WT [19] = molecular target: T1, WT; experiment: biochemical; parameters: species or system HIV
[20] = fold difference in EC50 vs wild type, class symbols
[21] = Human immunodeficiency virus 1, IIIB, MT2, Table 10, class symbols
[22] = Human immunodeficiency virus 1, IIIB, MT2
[23] = MT-4, WT, read-out: Cell-based assay (MT-4) EC50/nM WT
[24] = Enzymatic assay, 84V90M, read-out: 84V90M IC50/nM
[25] = MT-4, 84V90M, read-out: Cell-based assay (MT-4) EC50/nM 84V90M
[26] = Human immunodeficiency virus 1, read-out: Cell-based assay (MT-4) EC50/nM 30N82I88D

## CCOC(=O)COP(=O)(COc1ccc(CC(NC(=O)OC2COC3OCCC23)C(O)CN(CC(C)C)S(=O)(=O)c2ccc(OC)cc2)cc1)Oc1ccccc1 (stereo not shown) [drawing 609 R1=OPh R2=Glc-Et]
[1]; [20]
  I84V/L90M fold change: − (≦3)
[2]; [21]
  EC50: < 50 nM

## CC(C)(C)NC(=O)[C@@H]1C[C@@H]2CCCC[C@@H]2CN1C[C@@H](O)[C@H](Cc1ccccc1)NC(=O)[C@H](CC(N)=O)NC(=O)c1ccc2ccccc2n1 [Saquinavir]
[3]; {}
  Total No. of Resistant Viruses: 4

## CCC[C@@]1(CCc2ccccc2)CC(O)=C([C@H](CC)c2cccc(NS(=O)(=O)c3ccc(C(F)(F)F)cn3)c2)C(=O)O1 [Tipranavir]
[4]
  Fold Change in EC50 Relative to WT HIV-1: 1 fold
[5]
  Fold Change in EC50 Relative to WT HIV-1: 0.5 fold
[6]
  Fold Change in EC50 Relative to WT HIV-1: 2 fold
[7]
  Fold Change in EC50 Relative to WT HIV-1: 0.3 fold
[1]; [20]
  I84V/L90M fold change: + (>3 to ≦10)
[8]
  Fold Change in EC50 Relative to WT HIV-1: 3.5 fold
[9]
  Fold Change in EC50 Relative to WT HIV-1: 0.4 fold
[10]
  Fold Change in EC50 Relative to WT HIV-1: 5 fold
[11]
  Fold Change in EC50 Relative to WT HIV-1: 0.5 fold
[12]
  Fold Change in EC50 Relative to WT HIV-1: 3 fold
[3]; {}
  Total No. of Resistant Viruses: 1

## CCOP(=O)(COc1ccc2c(c1)CCN(CC(NC(=O)OC1COC3OCCC13)C(O)CN(CC(C)C)S(=O)(=O)c1ccc(OC)cc1)C2)OCC (stereo not shown)
[1]; [20]
  I84V/L90M fold change: + (>3 to ≦10)
[2]; [22]
  EC50: 50 to 500 nM

## CCOP(=O)(COCCCN1C(=O)N(Cc2ccc3[nH]nc(N)c3c2)C(Cc2ccccc2)C(O)C(O)C1Cc1ccccc1)OCC (stereo not shown) [OCH2PO3Et2]
WT [13]; [23]
  EC50: 356 nM
48V54V82A; MT-4, 48V54V82A, read-out: Cell-based assay (MT-4) EC50/nM 48V54V82A
  EC50: 175 nM
30N82I88D; MT-4, 30N82I88D, read-out: Cell-based assay (MT-4) EC50/nM 30N82I88D
  EC50: 145 nM
46I50V; MT-4, 46I50V, read-out: Cell-based assay (MT-4) EC50/nM 46I50V
  EC50: 138 nM

## Nc1n[nH]c2ccc(CN3C(=O)N(Cc4ccc(OCP(=O)(O)O)cc4)C(Cc4ccccc4)C(O)C(O)C3Cc3ccccc3)cc12 (stereo not shown) [p-OCH2PO3H2]
WT [13]
  EC50: > 12000 nM
84V90M [14]; [24]
  IC50: 1660 nM

## Nc1n[nH]c2ccc(CN3C(=O)N(CCCOCP(=O)(O)O)C(Cc4ccccc4)C(O)C(O)C3Cc3ccccc3)cc12 (stereo not shown) [OCH2PO3H2]
84V90M [15]; [25]
  EC50: > 600 nM
WT [13]; [23]
  EC50: 1070 nM

## CC(C)(C)NC(=O)[C@@H]1CN(Cc2cccnc2)CCN1C[C@@H](O)C[C@@H](Cc1ccccc1)C(=O)N[C@H]1c2ccccc2C[C@H]1O [Indinavir]
[3]; {}
  Total No. of Resistant Viruses: 8

## Cc1c(O)cccc1C(=O)N[C@@H](CSc1ccccc1)[C@H](O)CN1C[C@H]2CCCC[C@H]2C[C@H]1C(=O)NC(C)(C)C [Nelfinavir, nelfinavir]
[3]; {}
  Total No. of Resistant Viruses: 9

## O=C1N(Cc2ccccc2)C(Cc2ccccc2)C(O)C(O)C(Cc2ccc(OCP(=O)(OCc3ccccc3)OCc3ccccc3)cc2)N1Cc1ccccc1 (stereo not shown)
84V90M [16]
  EC50: > 6000 nM

## CC(C)CN(C[C@@H](O)[C@H](Cc1ccccc1)NC(=O)O[C@H]1CCOC1)S(=O)(=O)c1ccc(N)cc1 [Amprenavir, amprenavir]
[3]; {}
  Total No. of Resistant Viruses: 4

## COc1ccc(S(=O)(=O)N(CC(C)C)C[C@@H](O)[C@H](Cc2ccccc2)NC(=O)O[C@H]2CO[C@H]3OCC[C@H]32)cc1 [Example 94-003]
[3]; {}
  Total No. of Resistant Viruses: 3

## Nc1n[nH]c2ccc(CN3C(=O)N(Cc4ccc(OCc5ccccc5)cc4)C(Cc4ccccc4)C(O)C(O)C3Cc3ccccc3)cc12 (stereo not shown) [p-OBn]
84V90M [15]
  EC50: 5310 nM
WT [13]
  EC50: 2120 nM
30N82I88D; [26]
  EC50: 1550 nM
84V90M [14]; [24]
  IC50: 781 nM

## CCCCOC(=O)C(C)NP(=O)(COc1ccc(CC(NC(=O)OC2COC3OCCC23)C(O)CN(CC(C)C)S(=O)(=O)c2ccc(OC)cc2)cc1)NC(C)C(=O)OCCCC (stereo not shown) [GS-16503]
MT-2 cells
  increase of conversion to acid metabolites at 1 μM vs. 10 μM: 3 fold
[3]; resistance = 5-fold and higher change in EC50 relative to wild type, 11 mutant viruses
  Total No. of Resistant Viruses: 0

## Cc1cccc(C)c1OCC(=O)N[C@@H](Cc1ccccc1)[C@@H](O)C[C@H](Cc1ccccc1)NC(=O)[C@H](C(C)C)N1CCCNC1=O [Lopinavir]
[4]
  Fold Change in EC50 Relative to WT HIV-1: 9 fold
[5]
  Fold Change in EC50 Relative to WT HIV-1: 19 fold
[6]
  Fold Change in EC50 Relative to WT HIV-1: 60 fold
[7]
  Fold Change in EC50 Relative to WT HIV-1: 4.5 fold
[10]
  Fold Change in EC50 Relative to WT HIV-1: 11 fold
[17]
  Fold Change in EC50 Relative to WT HIV-1: 11 fold
[12]
  Fold Change in EC50 Relative to WT HIV-1: 7.5 fold
[3]; {}
  Total No. of Resistant Viruses: 6

## Cc1cccc(C)c1OCC(=O)N[C@@H](Cc1ccc(OCP(=O)(Oc2ccccc2)Oc2ccccc2)cc1)[C@H](O)CN(CC(C)C)S(=O)(=O)c1ccc(N)cc1
[18]; read-out: Ki
  Ki: 0.01 to 0.1 nM

## CCOC(=O)COP(=O)(COc1ccc(CC(NC(=O)OC2COC3OCCC23)C(O)CN(CC(C)C)S(=O)(=O)c2ccc(OC)cc2)cc1)OCC(=O)OCC (stereo not shown) [drawing 607 R1=Glc-Et R2=Glc-Et]
[1]; [20]
  I84V/L90M fold change: − (≦3)
[2]; [22]
  EC50: 500 to 5000 nM

## Nc1n[nH]c2ccc(CN3C(=O)N(Cc4cccc(OCc5ccccc5)c4)C(Cc4ccccc4)C(O)C(O)C3Cc3ccccc3)cc12 (stereo not shown) [m-OBn]
84V90M [15]; [25]
  EC50: 2420 nM
WT [13]
  EC50: 218 nM
84V90M [14]; [24]
  IC50: 27 nM

## CCOC(=O)C(C)OP(=O)(Cc1ccc(N(C)CC(NC(=O)OC2COC3OCCC23)C(O)CN(CC(C)C)S(=O)(=O)c2ccc(OC)cc2)cc1)Oc1ccccc1 (stereo not shown)
[1]; I84V/L90M mutant
  I84V/L90M fold change: +++ (>30)
[2]; read-out: EC50
  EC50: 500 to 5000 nM
[18]; read-out: Ki
  Ki: 0.01 to 0.1 nM

## CC(C)c1nc(CN(C)C(=O)N[C@H](C(=O)N[C@@H](Cc2ccccc2)C[C@H](O)[C@H](Cc2ccccc2)NC(=O)OCc2cncs2)C(C)C)cs1 [Ritonavir]
[3]; {}
  Total No. of Resistant Viruses: 10

## CCOC(=O)C(C)OP(=O)(Cc1ccc2c(c1)CCN(CC(NC(=O)OC1COC3OCCC13)C(O)CN(CC(C)C)S(=O)(=O)c1ccc(OC)cc1)C2)Oc1ccccc1 (stereo not shown)
[1]; [20]
  I84V/L90M fold change: + (>3 to ≦10)
[2]; [21]
  EC50: 50 to 500 nM

## CCOP(=O)(CCNC(=O)Oc1ccc(CC2C(O)C(O)C(Cc3ccc(OC)cc3)N(Cc3ccc(O)cc3)C(=O)N2Cc2ccc(O)cc2)cc1)OCC (stereo not shown) [OCH3 / Ph-pOH / OCONH(CH2)2PO3Et2]
84V90M [16]
  EC50: 495 nM

## O=C1N(Cc2ccccc2)[C@H](Cc2ccccc2)[C@H](O)[C@@H](O)[C@@H](Cc2ccccc2)N1Cc1ccc2[nH]ncc2c1 [reference compound]
84V90M [15]; [25]
  EC50: 2310 nM
WT [13]
  EC50: 193 nM

## COc1ccc(S(=O)(=O)N(CC(C)C)CC(O)C(Cc2ccc(C)cc2)NC(=O)OC2COC3OCCC23)cc1 (stereo not shown)
[1]; I84V/L90M mutant
  I84V/L90M fold change: + (>3 to ≦10)
[2]; [22]
  EC50: < 50 nM

## CCOP(=O)(CCCNC(=O)c1cccc(CN2C(=O)N(Cc3ccc(O)cc3)C(Cc3ccccc3)C(O)C(O)C2Cc2ccccc2)c1)OCC (stereo not shown)
84V90M [15]
  EC50: 311 nM
48V82A90M
  EC50: 74 nM
WT [13]
  EC50: 65 nM
48V54V82A; Human immunodeficiency virus 1, read-out: Cell-based assay (MT-4) EC50/nM 48V54V82A
  EC50: 80 nM
30N82I88D; [26]
  EC50: 74 nM
46I50V; Human immunodeficiency virus 1, read-out: Cell-based assay (MT-4) EC50/nM 46I50V
  EC50: 85 nM
[18]; Ki (nM)
  Ki: 0.009 nM
48V54V82S
  EC50: 75 nM
84V90M [14]
  IC50: 12 nM
WT [19]
  IC50: 1.1 nM

## CCOP(=O)(COc1ccc(CC2C(O)C(O)C(Cc3ccc(O)cc3)N(Cc3ccc(O)cc3)C(=O)N2Cc2ccc(O)cc2)cc1)OCC (stereo not shown) [OH, Ph-pOH, OCH2PO3Et2]
84V90M [15]; [25]
  EC50: 1910 nM
WT [13]
  EC50: 285 nM

## CCOP(=O)(COc1ccc(CC2C(O)C(O)C(Cc3ccccc3)N(Cc3ccccc3)C(=O)N2Cc2ccccc2)cc1)OCC (stereo not shown)
84V90M [15]; [25]
  EC50: 2460 nM
WT [13]
  EC50: 107 nM

## CCOP(=O)(COc1ccc(CC(NC(=O)OC2CCOC2)C(O)CN(CC(C)C)S(=O)(=O)c2ccc(OC)cc2)cc1)OCC (stereo not shown) [OMe, OEt]
[1]; I84V/L90M mutant
  I84V/L90M fold change: ++ (>10 to ≦30)
[2]; [22]
  EC50: < 50 nM
